These results are taken from patent publication US5925671A, “Antitumor isocoumarins” (Pharma Mar, s.a., priority 1995, dated 1999).

The IC50 is the concentration that inhibits the measured activity by half.

Holding throughout (format): cell-based
Assay [1] concerns MEL-28 (monolayer culture of a human melanoma). Nature of the assay: Antitumor activity: growth inhibition of MEL-28 cells, 3 days, Crystal Violet staining. Conditions: for IC50: Homo sapiens, SK-MEL-28, 72 h, MEL-28, three days, 37° C., approximate IC50; for antitumour activity against MEL-28 human melanoma: statement in words. An excerpt: (§1) An adapted form of the method described by Bergeron et al ("Antineoplastic an antiherpetic activity of spermidine catecholamide iron chelators" Biochem. Bioph. Res. Comm., 1984, 121(3), 848-854, and see also Schroeder et al, "Effects of Acyclic Pyrimidine Nucleoside Analogues" Med. Chem., 1981, 24 1078-1083) was used to determine the antitumor activity of the compounds of this invention. Three cultures of antitumour cell were employed. A-549 (monolayer culture of a human lung carcinoma, HT-29 (monolayer culture of a human colon carcinoma) and MEL-28 J (monolayer culture of a human melanoma).
(§2) A-549, HT-29 and MEL-28 were seeded into 16 mm wells at 2×20" cells per well in 1 ml aliquots of MEM 10FCS containing the identical concentration of drug. A separate set of cultures without drug was seeded a control growth to ensure that cells remained in exponential phase of growth. All determinations were carried out in duplicate. After three days of incubation at 37° C., 10% CO2 in 98% humid atmosphere, the wells were stained with 0.1% Crystal Violet. An approximate IC50 was determined by comparing growth in wells with drug to the growth in control wells.

Assay [2] deals with HT-29 (monolayer culture of a human colon carcinoma). Nature of the assay: Antitumor activity: growth inhibition of HT-29 cells, 3 days, Crystal Violet staining. Conditions: for IC50: Homo sapiens, 72 h, HT-29, three days, 37° C., approximate IC50; for antitumour activity against HT-29 human colon carcinoma: statement in words.
Text: as §1, §2

Assay [3] has as its system A-549 (monolayer culture of a human lung carcinoma). Put plainly: Antitumor activity: growth inhibition of A-549 cells, 3 days, Crystal Violet staining. Conditions: for IC50: Homo sapiens, A549, 72 h, A-549, three days, 37° C., approximate IC50; for antitumour activity against A-549 human lung carcinoma: statement in words.
Text: as §1, §2

The test system of assay [4] is Bacillus sp. M-00-PHD-090 (CETC 4546). Nature of the assay: Antibiotic sensitivity of the producing strain (PASCO Data Management System MIC Gram Positive). Conditions: 28° C., 48 hours incubation. As to the method:
5. Antibiotic Sensitivity - PASCO™ Data Management System (Difco) MIC Gram Positive
All cultures were incubated at 28° C. and records of the results were made after 48 hours incubation time. The descriptions of the culture and test results are as follows: […]

Converted amounts (≈) assume the structure as drawn. Bridge positions count the residues as written; N and C are the ends. Square brackets hold non-standard residues; d marks the D form. Peptide text beside a SMILES is read from it. * marks the point of attachment. Ileψ(thiazoline)Cys = CC[C@H](C)[C@H](N)C1=N[C@H](C(=O)*)CS1; dOrn = NCCC[C@@H](N)C(=O)O

For the compound `CC(C)CC(NC(=O)C(O)C(O)C(N)CC(N)=O)C1Cc2cccc(O)c2C(=O)O1` (stereo not shown) [Amicoumacin A, amicoumacin A], in assay [1], the IC50 turned out to be 0.15 µg/mL (≈ 0.354 µM) and the “antitumour activity against MEL-28 human melanoma” value is recorded as “exhibit antitumour activity”. Besides, in assay [2], the midpoint of inhibition, the IC50, lay at 1.5 µg/mL (≈ 3.54 µM) and the “antitumour activity against HT-29 human colon carcinoma” value was “exhibit antitumour activity”. Also, in assay [3], the half-inhibitory concentration (IC50) is 0.75 µg/mL (≈ 1.77 µM) and the “antitumour activity against A-549 human lung carcinoma” value is listed as “exhibit antitumour activity”. `CC[C@H]1OC(=O)[C@H](C)[C@@H](O[C@H]2C[C@@](C)(OC)[C@@H](O)[C@H](C)O2)[C@H](C)[C@@H](O[C@@H]2O[C@H](C)C[C@H](N(C)C)[C@H]2O)[C@](C)(O)C[C@@H](C)C(=O)[C@H](C)[C@@H](O)[C@]1(C)O` [erythromycin]: in assay [4], the Antibiotic sensitivity entry is given as “Sensitive”. For teicoplanin, the Antibiotic sensitivity entry in assay [4] is listed as “resistant”.

On to `CN(C)C1C(=O)C(C(N)=O)=C(O)C2(O)C(=O)C3=C(O)c4c(O)cccc4C(C)(O)C3CC12` (stereo not shown) [tretracycline], for which the Antibiotic sensitivity result in assay [4] was “Sensitive”. On the same count and under the same terms, under `Cc1onc(-c2ccccc2)c1C(=O)N[C@@H]1C(=O)N2[C@@H]1SC(C)(C)[C@@H]2C(=O)O` [oxacillin] stands “Sensitive”; under `CCn1cc(C(=O)O)c(=O)c2ccc(C)nc21` [nalidixic acid], “Sensitive”. The same measure, in the same setting: under `CO[C@@]1(NC(=O)Cc2cccs2)C(=O)N2C(C(=O)O)=C(COC(N)=O)CS[C@@H]21` [cefoxitin] stands “Sensitive”; under gentamicin, “Sensitive”; under `CC[C@H](C)[C@H](N)C1=N[C@H](C(=O)N[C@@H](CC(C)C)C(=O)N[C@H](CCC(=O)O)C(=O)N[C@H](C(=O)N[C@H]2CCCCNC(=O)[C@H](CC(N)=O)NC(=O)[C@@H](CC(=O)O)NC(=O)[C@H](Cc3cnc[nH]3)NC(=O)[C@@H](Cc3ccccc3)NC(=O)[C@H]([C@@H](C)CC)NC(=O)[C@@H](CCCN)NC2=O)[C@@H](C)CC)CS1` [bacitracin] ({Ileψ(thiazoline)Cys}-L[dE]IK[dOrn]I[dF]H[dD]N; lactam 4-C), “resistant”.

Consider `CCn1cc(C(=O)O)c(=O)c2cc(F)c(N3CCNCC3)cc21` [norfloxacin], for which the Antibiotic sensitivity entry in assay [4] is recorded as “Sensitive”.

In the case of `C[C@@H]1O[C@@H]1P(=O)(O)O` [fosfomicin], in assay [4], the Antibiotic sensitivity entry was “Sensitive”. Same read-out and setting: with `NCC[C@H](O)C(=O)N[C@@H]1C[C@H](N)[C@@H](O[C@H]2O[C@H](CN)[C@@H](O)[C@H](O)[C@H]2O)[C@H](O)[C@H]1O[C@H]1O[C@H](CO)[C@@H](O)[C@H](N)[C@H]1O` [amikacin] the entry was “Sensitive”; with `CC1(C)S[C@@H]2[C@H](NC(=O)Cc3ccccc3)C(=O)N2[C@H]1C(=O)O` [penicillin], “Sensitive”; with `[H]/N=C(/N)N[C@H]1[C@H](O)[C@@H](O)[C@H](O[C@@H]2O[C@@H](C)[C@](O)(C=O)[C@H]2O[C@@H]2O[C@@H](CO)[C@H](O)[C@@H](O)[C@@H]2NC)[C@@H](N/C(N)=N\[H])[C@@H]1O` [streptomycin], “Sensitive”. The same measure, in the same setting: with `CN[C@H](CC(C)C)C(=O)N[C@H]1C(=O)N[C@@H](CC(N)=O)C(=O)N[C@H]2C(=O)N[C@H]3C(=O)N[C@H](C(=O)N[C@H](C(=O)O)c4cc(O)cc(O)c4-c4cc3ccc4O)[C@H](O)c3ccc(c(Cl)c3)Oc3cc2cc(c3O[C@@H]2O[C@H](CO)[C@@H](O)[C@H](O)[C@H]2O[C@H]2C[C@](C)(N)[C@H](O)[C@H](C)O2)Oc2ccc(cc2Cl)[C@H]1O` [vancomycin] the entry was “resistant”; with `CC1(C)S[C@@H]2[C@H](NC(=O)[C@H](N)c3ccccc3)C(=O)N2[C@H]1C(=O)O` [ampicillin], “Sensitive”. On the same count and under the same terms, under `N[C@@H](C(=O)N[C@@H]1C(=O)N2C(C(=O)O)=C(Cl)CS[C@H]12)c1ccccc1` [ceflactor] stands “Sensitive”.

Consider `CC(C)CC(N)C(O)C(O)C(=O)NC(CC(C)C)C1Cc2cccc(O)c2C(=O)O1` (stereo not shown) [PM-94128], for which, in assay [1], the IC50 was 0.02 µg/mL (≈ 0.0473 µM) and the “antitumour activity against MEL-28 human melanoma” value was “exhibit antitumour activity”. In assay [2], half-maximal inhibition (IC50) was put at 0.02 µg/mL (≈ 0.0473 µM) and the “antitumour activity against HT-29 human colon carcinoma” value is “exhibit antitumour activity”. In assay [3], it took 0.02 µg/mL (≈ 0.0473 µM) to reach half-maximal inhibition (IC50) and the “antitumour activity against A-549 human lung carcinoma” value is given as “exhibit antitumour activity”. For `CO[C@@H]1[C@@H](OC(N)=O)[C@@H](O)[C@H](Oc2ccc3c(O)c(NC(=O)c4ccc(O)c(CC=C(C)C)c4)c(=O)oc3c2C)OC1(C)C` [novobiocin], the Antibiotic sensitivity result in assay [4] is “Sensitive”. The same measure, in the same setting: with `CO/N=C(\C(=O)N[C@@H]1C(=O)N2C(C(=O)O)=C(COC(N)=O)CS[C@H]12)c1ccco1` [cefuroxime] the entry was “Sensitive”; with `CO[C@H]1/C=C/O[C@@]2(C)Oc3c(C)c(O)c4c(O)c(c(/C=N/N5CCN(C)CC5)c(O)c4c3C2=O)NC(=O)/C(C)=C\C=C\[C@H](C)[C@H](O)[C@@H](C)[C@@H](O)[C@@H](C)[C@H](OC(C)=O)[C@@H]1C` [rifampicin], “Sensitive”.
